From patent US11932655B1, “12-bromo-2,16-dioxapentacyclo[7.7.5.01,21.03,8.010,15]henicosa3(8),10,12,14-tetraene-7,20-dione as an antimicrobial compound” (KING FAISAL UNIVERSITY, priority 2023, dated 2024)

Key:
Assay in all cases: Antimicrobial activity, agar dilution, exposure-time test
Type in all cases: cell-based
Conditions in all cases: after 10, 20, 40 and 60 minutes at all dilutions 1:100 to 1:800
[1] = system: Escherichia coli
Experimental: (§1) The antibacterial properties of the synthesized compound of 12-bromo-2,16-dioxapentacyclo[7.7.5.0^1,21.0^3,8.0^10,15]henicosa3(8),10,12,14-tetraene-7,20-dione were studied by the method of agar dilution. Test solutions of each compound was prepared in concentration of 1% using dimethylformamide as a solvent. Then they were diluted in physiological solution to obtain the final experimental dilutions of 1:100, 1:200, 1:400, and 1:800. The effect of these substances were compared with furacillin in a controllable study. The testing microbes used were gram positive bacteria Staphylococcus aureus, gram negative bacteria Pseudomonas aeruginosa, Escherichia coli, and Candida albicans fungus. The experiments used for this survey were meat-pentonlu agar (EPA) for cultivation of bacteria and Saburo environment for fungi. Each experiment used 1 mL of test solution on each plate for 500 minutes. Two drops of emulsified with microbes feel were added. All experimental samples were taken from the agar after 10, 20, 40, 60 minutes in the environment on the basis of Patrk planted. Bacteria were cultivated at a temperature of 37° C. for 1 day and the mushroom was kept in a thermostat for […] at a temperature of 28° C. Then results were checked. Those of the control and the antimicrobial activity for the synthesized compounds are listed in Table 1 below, with furacillin serving as a reference.

[2] = system: Pseudomonas aeruginosa
Experimental: as §1

[3] = system: Staphylococcus aureus
Experimental: as §1

[4] = system: Candida albicans
Experimental: as §1

Measured: inhibition activity compared with Furacilin

O=C1CCCC2=C1C1c3cc(Br)ccc3OC3(CCCC(=O)C13)O2 (stereo not shown) [12-bromo-2,16-dioxapentacyclo[7.7.5.0^1,21.0^3,8.0^10,15]henicosa3(8),10,12,14-tetraene-7,20-dione]
higher inhibition activity: all assays above
